Here are results for ten compounds from patent US9512139B2, “Conformationally constrained, fully synthetic macrocyclic compounds” (POLYPHOR AG, priority 2009, dated 2016).

Data set [1] in a line: Metabolic stability assay, human microsomes. The format is in vitro ADME. To be noted: human, microsomes; for Metabolic Stability T½ [min] hum / Metabolic Stability 60 min hum [% remain.]: both, 10 µM; for Metabolic Stability 60 min hum [% remain.]: 1 h; for half-life at 10 µM: both sexes.
Data set [2] is described as follows: in vitro. The format is in vitro ADME, human. To be noted: human, plasma, 10 µM; for Plasma Stability 240 min hum [% remain.]: 4 h.
Data set [3] can be described thus: Metabolic stability assay, CD-1 mouse microsomes. The format is in vitro ADME. To be noted: both, CD-1, mouse, microsomes, 10 µM; for Metabolic Stability 60 min mouse [% remain.]: 1 h.
In the next data set the target is T1, Motilin Receptor (Homo sapiens, UniProt O43193).
T1 construct: host or cells: Ca2+ optimized hematopoietic cell lines (rat)
T1 sequence (O43193 whole entry, species assumed): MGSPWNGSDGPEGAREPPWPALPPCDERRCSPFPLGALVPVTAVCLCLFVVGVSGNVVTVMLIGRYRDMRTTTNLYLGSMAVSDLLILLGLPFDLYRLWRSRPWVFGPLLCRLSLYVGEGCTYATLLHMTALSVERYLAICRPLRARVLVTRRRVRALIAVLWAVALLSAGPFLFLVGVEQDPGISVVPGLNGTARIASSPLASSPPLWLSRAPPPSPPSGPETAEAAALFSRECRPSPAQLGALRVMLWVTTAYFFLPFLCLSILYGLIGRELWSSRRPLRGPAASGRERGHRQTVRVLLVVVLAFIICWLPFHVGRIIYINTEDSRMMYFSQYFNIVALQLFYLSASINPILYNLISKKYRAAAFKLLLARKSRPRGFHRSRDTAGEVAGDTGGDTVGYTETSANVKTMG
Description: Ca2+ assay (FLIPR) for the GPCR motilin receptor, agonist and antagonist mode. Format: cell-based. The settings on record: antagonist mode. On the procedure: Ca^2+ Assays for the GPCRs Motilin Receptor, Prostaglandin F (FP) Receptor, 5-hydroxytryptamine 2B (5-HT2B) Receptor, and Purinoreceptor P2Y1
Assays were performed using on a FLIPR^TETRA fluorometric imaging plate reader (Molecular Devices) with ScreenWorks Version 2 (Molecular Devices) as device operating and data analysis software.
Dose dependent agonist and antagonist activities were determined. Percentage activation and percentage inhibition values were determined.
Percentage activation was determined upon initial addition of the sample compounds followed by 10 minutes incubation at 25° C. Following compound incubation, reference agonists were added at EC80 to determine percentage inhibition.
Reference agonists were purchased from reputable commercial vendors and prepared according to each ligand's specifications. All handling of ligands were done to ensure proper control throughout the experiments.
Example compounds were weighed on a Microbalance (Mettler MX5) and dissolved in 100% DMSO to a final concentration of 2.5 mM and subsequently diluted into the assay buffer.
The Assay buffer was a supplemented HBSS (Hank's Balanced Salt Solution). HBSS was supplemented with 20 mM HEPES (4-(2-hydroxyethyl)-piperazin-1-ethansulfonic acid) and 2.5 mM Probenecid (Sigma P8761).
GPCR assays were performed using Ca^2+ optimized hematopoietic cell lines (rat) with cultures never exceeding 90% confluency. […] After seeding, the assay plates were incubated for forty-five (45) minutes at room temperature. After room temperature incubation, the assay plates were incubated at 37° C. 5% CO2 for 24 hours prior to assaying.
All GPCR assays were performed using Fluo-8 Ca^2+ dye. Ca^2+ dye was prepared at 1× dye concentration in GPCR assay buffer. After 24 hours of incubation, cells were washed with GPCR assay buffer, and then Ca^2+-dye (100 μL/well) was added.
The plates were incubated for 90 minutes at 30° C. 5% CO2 prior to FLIPR assay.
Compound plates were prepared to add 50 μL/well during the agonist assay mode. During the FLIPR assay, 50 μL/well from the compound plate was diluted 3-fold into the existing 100 μL/well from the dye loading step. Therefore all compounds were prepared as 3× the final concentration desired in the assay.
After completion of the first single addition assay run, assay plate was removed from the FLIPR Tetra and placed at 25° C. for seven (7) minutes before antagonist assay.
Using the EC80 values determined during the agonist assay, all pre-incubated sample compound and reference antagonist (if applicable) wells were stimulated at the EC80 of the reference agonist. As reference ligands for the first three assays their obvious natural ligands motilin, prostaglandin F2α, and serotonin (5-HT, 5-Hydroxytryptamine) were used; and for the P2Y1 assay 2MeSATP (2-methyl-thio-adeno-sine 5′-triphosphate, i.e. (2R,3S,4R)-5-(6-amino-2-methylsulfanyl-purin-9-yl)-3,4-dihydroxy-tetrahydrofuran-2-yl]methyl (hydroxy-phosphonooxy-phosphoryl)hydrogen phosphate) was applied.
After the addition of the reference agonist fluorescence was monitored for 180 sec using FLIPR Tetra.
Data Analysis and Results:
From the FLIPR data, with negative control correction enabled, the maximum statistic for each well was exported and percentage activation relative to Emax control was calculated.

Data set [4] in a line: in vitro. The format is in vitro ADME, mouse. To be noted: both, CD-1, mouse, plasma, 10 µM; for Plasma Stability 240 min mouse [% remain.]: 4 h.

Some results are limits rather than exact numbers.
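Throughout, for Plasma Stability 240 min mouse [% remain.]: sodium citrate stabilized mouse plasma, parent compound quantified by HPLC/MS/MS relative to its peak area at time zero, run in triplicate.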
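Throughout, for Plasma Stability T½ [min] mouse: sodium citrate stabilized mouse plasma, parent compound quantified by HPLC/MS/MS relative to its peak area at time zero, run in triplicate.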

As usually defined, the IC50 is the concentration that gives 50% inhibition. What is called inhibition is the relative decrease from the control value, in per cent. A lower inhibition goes with little suppression. As to `CN(C)CCNC(=O)[C@@H]1CCC(=O)N(C)CC(=O)N2C[C@@H](NC(=O)Cc3c[nH]c4ccccc34)C[C@H]2COc2ccc(F)cc2C(=O)N1C` [Ex. 11, (2S,11S,19aS)-N-[2-(dimethylamino)ethyl]-15-fluoro-2-{[2-(1H-indol-3-yl)acetyl]amino}-7,12-dimethyl-5,8,13-trioxo-2,3,6,7,8,9,10,11,12,13, 19,19a-dodecahydro-1H,5H-pyrrolo[2,1-c] [1,4,7,12]benzoxatriazacyclopentadecine-11-carboxamide], in data set [1], the Metabolic Stability T½ [min] hum is over 60 min and the “Metabolic Stability 60 min hum [% remain.]” value turned out to be 74 % remain. In addition, in the data set “in vitro [2]”, the Plasma Stability T½ [min] hum is over 240 min and the “Plasma Stability 240 min hum [% remain.]” value is 100 % remain. In data set [3], the Metabolic Stability T½ [min] mouse is over 60 min and the “Metabolic Stability 60 min mouse [% remain.]” value was found to be 77 % remain. In addition, the IC50 on Motilin Receptor was 0.78 µM. At Motilin Receptor (at 10 μM), this compound had an inhibition at 10 µM of 79%. Also, in “in vitro [4]”, the Plasma Stability T½ [min] mouse was over 240 min and the “Plasma Stability 240 min mouse [% remain.]” value is reported as 100 % remain.
As to `CN(C)CCNC(=O)[C@@H]1CCC(=O)N(C)CC(=O)N2C[C@@H](NC(=O)Cc3ccc4ccccc4c3)C[C@H]2COc2ccc(F)cc2C(=O)N1C` [Ex. 48, (2S,11S,19aS)-N-[2-(dimethylamino)ethyl]-15-fluoro-7,12-dimethyl-2-{[2-(2-naphthyl)acetyl]amino}-5,8,13-trioxo-2,3,6,7,8,9,10,11,12,13,19,19a-dodecahydro-1H,5H-pyrrolo[2,1-c] [1,4,7,12] benzoxatriazacyclopentadecine-11-carboxamide], the inhibition at 10 µM on Motilin Receptor (at 10 μM) stood at 29%.
One may read the half-life as the time in which the quantity being followed falls by half. Lower therefore signals fast loss. Turning to `CN(C)CCNC(=O)[C@@H]1CCC(=O)N(C)CC(=O)N2C[C@@H](NC(=O)Cc3cccc4ccccc34)C[C@H]2COc2ccc(F)cc2C(=O)N1C` [Ex. 49, (2S,11S,19aS}-N-[2-(dimethylamino)ethyl]-15-fluoro-7,12-dimethyl-2-{[2-(1-naphthyl)acetyl]amino}-5,8,13-trioxo-2,3,6,7,8,9,10,11,12,13,19,19a-dodecahydro-1H,5H-pyrrolo[2,1-c] [1,4,7,12] benzoxatriazacyclopentadecine-11-carboxamide], in data set [1], the half-life at 10 µM stood at 0.4 h and the “Metabolic Stability 60 min hum [% remain.]” value amounted to 10 % remain. In the data set “in vitro [2]”, the Plasma Stability T½ [min] hum was over 240 min and the “Plasma Stability 240 min hum [% remain.]” value was 83 % remain. For the same compound, in data set [3], the Metabolic Stability T½ [min] mouse was over 60 min and the “Metabolic Stability 60 min mouse [% remain.]” value is 83 % remain. The compound further displayed an IC50 at Motilin Receptor of 0.16 µM. Moreover, 10 µM produced 98% inhibition at Motilin Receptor (at 10 μM). For the same compound, in “in vitro [4]”, the Plasma Stability T½ [min] mouse was over 240 min and the “Plasma Stability 240 min mouse [% remain.]” value is reported as 96 % remain.
Consider `CN(C)CCNC(=O)[C@@H]1CCC(=O)N(C)CC(=O)N2C[C@@H](NC(=O)Nc3cccc4ccccc34)C[C@H]2COc2ccc(F)cc2C(=O)N1C` [Ex. 482, (2S,11S,19aS)-N-[2-(dimethylamino)ethyl]-15-fluoro-7,12-dimethyl-2-{[(1-naphthylamino)carbonyl]amino}-5,8,13-trioxo-2,3,6,7,8,9,10, 11,12,13,19,19a-dodecahydro-1H,5H-pyrrolo [2,1-c] [1,4,7,12]benzoxatriazacyclopentadecine-11-carboxamide], for which, in data set [1], the half-life at 10 µM worked out at 0.367 h and the “Metabolic Stability 60 min hum [% remain.]” value is listed as 11 % remain. Besides, in “in vitro [2]”, the Plasma Stability T½ [min] hum is over 240 min and the “Plasma Stability 240 min hum [% remain.]” value was found to be 100 % remain. In data set [3], the Metabolic Stability T½ [min] mouse is over 60 min and the “Metabolic Stability 60 min mouse [% remain.]” value worked out at 84 % remain. Moreover, the half-maximal inhibitory concentration (IC50) at Motilin Receptor amounted to 1.1 µM. On Motilin Receptor (at 10 μM), this compound had an inhibition at 10 µM of 62%. Moreover, in the data set “in vitro [4]”, the Plasma Stability T½ [min] mouse is over 240 min and the “Plasma Stability 240 min mouse [% remain.]” value amounted to 100 % remain.
Take `CN1CC(=O)N2C[C@@H](NC(=O)Cc3cccc4ccccc34)C[C@H]2COc2ccc(F)cc2C(=O)N(C)[C@H](C(=O)NCCN)CCC1=O` [Ex. 483, (2S,11S,19aS)-N-(2-aminoethyl)-15-fluoro-7,12-dimethyl-2-{[2-(1-naphthyl)acetyl]amino)-5,8,13-trioxo-2,3,6,7,8,9,10,11,12, 13,19,19a-dodecahydro-1H,5H-pyrrolo [2,1-c] [1,4,7,12]benzoxatriazacyclopentadecine-11-carboxamide]: in data set [1], the Metabolic Stability T½ [min] hum is over 60 min and the “Metabolic Stability 60 min hum [% remain.]” value came to 55 % remain. Besides, in “in vitro [2]”, the Plasma Stability T½ [min] hum was over 240 min and the “Plasma Stability 240 min hum [% remain.]” value is listed as 100 % remain. Besides, in data set [3], the Metabolic Stability T½ [min] mouse was over 60 min and the “Metabolic Stability 60 min mouse [% remain.]” value turned out to be 85 % remain. This compound also had an IC50 on Motilin Receptor of 0.023 µM. On Motilin Receptor (at 10 μM), this compound yielded an inhibition at 10 µM of 100%. Further, in “in vitro [4]”, the Plasma Stability T½ [min] mouse was over 240 min and the “Plasma Stability 240 min mouse [% remain.]” value stood at 100 % remain.
At Motilin Receptor (at 10 μM), `CC(=O)NCCNC(=O)[C@@H]1CCC(=O)N(C)CC(=O)N2C[C@@H](NC(=O)Cc3cccc4ccccc34)C[C@H]2COc2ccc(F)cc2C(=O)N1C` [Ex. 487, (2S,11S,19aS)-N-[2-(acetylamino)ethyl]-15-fluoro-7,12-dimethyl-2-{[2-(1-naphthyl)acetyl]amino}-5,8,13-trioxo-2,3,6,7,8,9,10,11,12,13,19,19a-dodecahydro-1H,5H-pyrrolo[2,1-c] [1,4,7,12]benzoxatri-azacyclopentadecine-11-carboxamide] yielded an inhibition at 10 µM of 47%.
Same read-out and setting: the value for `CN(C)CCCNC(=O)[C@@H]1CCC(=O)N(C)CC(=O)N2C[C@@H](NC(=O)Cc3cccc4ccccc34)C[C@H]2COc2ccc(F)cc2C(=O)N1C` [Ex. 488, (2S,11S,19aS)-N-[3-(dimethylamino)propyl]-15-fluoro-7,12-dimethyl-2-{[2-(1-naphthyl)acetyl]amino}-5,8,13-trioxo-2,3,6,7,8,9,10,11,12,13,19,19a-dodecahydro-1H,5H-pyrrolo[2,1-c] [1,4,7,12] benzoxatriazacyclopentadecine-11-carboxamide] was 23%; that for `CN(C)CCNC(=O)[C@@H]1CCC(=O)N(C)CC(=O)N2C[C@@H](NC(=O)Cc3cccc(C(F)(F)F)c3)C[C@H]2COc2ccc(F)cc2C(=O)N1C` [Ex. 495, (2S,11S,19aS)-N-[2-(dimethylamino)ethyl]-15-fluoro-7,12-dimethyl-5,8,13-trioxo-2-({2-[3-(trifluoromethyl)phenyl]acetyl}amino)-2,3,6,7,8,9,10,11,12,13,19,19a-dodecahydro-1H,5H-pyrrolo[2,1-c] [1,4,7,12] benzoxatriazacyclopentadecine-11-carboxamide] was 26%.
With `COc1cccc(CC(=O)N[C@H]2C[C@H]3COc4ccc(F)cc4C(=O)N(C)[C@H](C(=O)NCCN(C)C)CCC(=O)N(C)CC(=O)N3C2)c1` [Ex. 496, (2S,11S,19aS)-N-[2-(dimethylamino)ethyl]-15-fluoro-2-{[2-{3-methoxyphenyl)acetyl]amino}-7,12-dimethyl-5,8,13-trioxo-2,3,6,7,8,9,10,11,12,13,19,19a-dodecahydro-1H,5H-pyrrolo[2,1-c] [1,4,7,12]benzoxatriazacyclopentadecine-11-carboxamide], the inhibition at 10 µM on Motilin Receptor (at 10 μM) was determined as 31%.
Take `CN1CC(=O)N2C[C@@H](NC(=O)Cc3cccc4ccccc34)C[C@H]2COc2ccc(F)cc2C(=O)N(C)[C@H](C(=O)NCc2cccnc2)CCC1=O` [Ex. 497, (2S,11S,19aS)-15-fluoro-7,12-dimethyl-2-{[2-(1-naphthyl)acetyl]amino}-5,8,13-trioxo-N-(3-pyridinylmethyl)-2,3,6,7,8,9, 10,11,12,13,19,19a-dodecahydro-1H,5H-pyrrolo[2,1-c][1,4,7,12]benzoxatriazacyclo-pentadecine-11-carboxamide]: the “Antagonist activity [% Inhibition at 10 μM]” value at Motilin Receptor (at 10 μM) is 24%.
